Laboratory results from patent publication US10357589B2, “One component fibrin glue comprising a polymerization inhibitor” (Omrix Biopharmaceuticals Ltd., priority 2013, dated 2019).
“Also recorded” adds a separate entry of the source.

What was measured:
fibrin monomers [1] = assay: Time to clot of GPRP peptide:fibrin monomers mixture (cessation of flow when inverting the tube); format: biochemical
Protocol: A mixture of GPRP peptide:fibrin monomers was prepared as follows:
Fibrinogen final concentration used was 1%, 1.5%, 3%, 3.5%. A BAC2 solution [fibrinogen component of EVICEL®] containing 7% clottable fibrinogen was diluted in 20 mM sodium acetate (NaAcetate) buffer, pH 7.0 to obtain the final listed concentrations.
To form fibrin, thrombin (as in EVICEL® Fibrin Sealant) was added to the fibrinogen solution at a final concentration of 10 IU/ml or 100 IU/ml and then the time to clot was recorded. Clotting was assessed by cessation of flow when inverting the tube.
The fibrin monomer concentration was estimated as being equal to the fibrinogen concentration.
All of these (having a ratio of at most 57:1) are below the minimal ratio required for long term stabilization of fibrin monomers. The GPRP:fibrin solution was prepared as described above (by adding a GPRP peptide into a fibrinogen solution and adding thrombin into the GPRP:fibrinogen mix). Next, the time to clotting was recorded as above.

fibrin monomers [2] = assay: as above; format: biochemical; conditions: 1% fibrin monomers, thrombin 10 or 100 IU/ml

Q: With Gly-Pro-Arg-Pro [GPRP] as the substance, how does the Time to clot (fibrin monomers [1]; 1% fibrin monomers, 0.1 mM GPRP, GPRP:fibrin 3.4 fold, thrombin 10 or 100 IU/ml) read?
A: Its Time to clot is “immediately; also recorded: Immediate”.

Q: And the Time to clot (fibrin monomers [1]; 3% fibrin monomers, 0.1 mM GPRP, GPRP:fibrin 1.1 fold)?
A: Its Time to clot is 5 s.

Q: And the Time to clot (fibrin monomers [1]; 3% fibrin monomers, 0.2 mM GPRP, GPRP:fibrin 2.3 fold)?
A: The Time to clot was 7 s.

Q: What about the Time to clot (fibrin monomers [1]; 3% fibrin monomers, 0.5 mM GPRP, GPRP:fibrin 5.7 fold) of the same substance?
A: The Time to clot was 11 s.

Q: And the Time to clot (fibrin monomers [1]; 3% fibrin monomers, 1 mM GPRP, GPRP:fibrin 11.3 fold)?
A: Its Time to clot is 13 s.

Q: What about the Time to clot (fibrin monomers [1]; 3% fibrin monomers, 1.5 mM GPRP, GPRP:fibrin 17 fold) of the same substance?
A: Its Time to clot is 22 s.

Q: What about the Time to clot (fibrin monomers [1]; 3% fibrin monomers, 2 mM GPRP, GPRP:fibrin 22.7 fold) of the same substance?
A: The Time to clot was 28 s.

Q: What about the Time to clot (fibrin monomers [1]; 3% fibrin monomers, 3 mM GPRP, GPRP:fibrin 34 fold) of the same substance?
A: Its Time to clot is 150 s.

Q: And the Time to clot (fibrin monomers [1]; 3% fibrin monomers, 4 mM GPRP, GPRP:fibrin 45 fold)?
A: The Time to clot was 480 s.

Q: And the Time to clot (fibrin monomers [1]; 3% fibrin monomers, 5 mM GPRP, GPRP:fibrin 56.7 fold)?
A: The Time to clot was 900 s.

Q: What about the Time to clot (fibrin monomers [2]; 5 mM GPRP, GPRP:fibrin 170 fold) of the same substance?
A: Its Time to clot is 4 h.

Q: What about the Time to clot (fibrin monomers [2]; 10 mM GPRP, GPRP:fibrin 340 fold) of the same substance?
A: The Time to clot was 170 to 190 h.
